Test results taken from article PMC8319832, “Fine-Tuning of Alkaline Residues on the Hydrophilic Face Provides a Non-toxic Cationic α-Helical Antimicrobial Peptide Against Antibiotic-Resistant ESKAPE Pathogens” (Frontiers in Microbiology, 2021).
In brackets after ≈: the same amount, converted by molar mass. Where a SMILES comes first, the peptide text is derived from it.

Tests used:
S. epidermidis 888 = assay: MIC, broth dilution; assay type: cell-based; details: CLSI broth dilution, MHB, 37°C, 20 h, OD630, at least three repeats; clinical isolate
Text: (§1) All experiments were repeated at least three times.

S. epidermidis 6943 = assay: MIC, broth dilution; assay type: cell-based; details: CLSI broth dilution, MHB, 37°C, 20 h, OD630, at least three repeats; clinical isolate, MRSE
Text: as §1

E. faecalis 901 = assay: MIC, broth dilution; assay type: cell-based; details: CLSI broth dilution, MHB, 37°C, 20 h, OD630, at least three repeats; clinical isolate
Text: as §1

S. epidermidis 9092 = assay: MIC, broth dilution; assay type: cell-based; details: CLSI broth dilution, MHB, 37°C, 20 h, OD630, at least three repeats; clinical isolate, MRSE
Text: as §1

healthy ICR mice = assay: In vivo systemic toxicity; set-up: species or system mouse
Experimental: Healthy ICR mice (male, 6–8 weeks old, ∼30 g) were used to determine the in vivo systemic toxicity of the peptide ([Chen et al., 2013]). The mice were randomly divided into six groups (n = 10). Five cohorts were intraperitoneally injected with a single dose of 10, 20, 40, 80, and 160 mg kg^–1 body weight of the peptide dissolved in PBS. The mice injected with PBS were used as control. The survival of mice was inspected for 7 days. All surviving mice were euthanized at the end of the experiments.
For histopathological examination, each group of ICR mice (n = 6) was injected intraperitoneally with PBS or with a single dose of 40 mg kg^–1 body weight of the peptide. At 1, 2, and 7-day post-injection, the mice were euthanized, and the liver, kidney and spleen were collected and fixed with 4% formaldehyde for haematoxylin and eosin staining.

S. aureus ATCC29213 = assay: MIC, broth dilution; assay type: cell-based, Staphylococcus aureus
Experimental: as §1
(§2) To study the influence of physiological ions on the antimicrobial activities of the peptides, The MICs of the peptides were also determined against the standard bacterial strains cultured in MHB containing various salts at their physiological concentrations (150 mM NaCl, 4.5 mM KCl, 1 mM MgCl2, 2 mM CaCl2, 6 μM NH4HCO3, and 4 μM FeCl3) ([Ma et al., 2016]).

P. aeruginosa 9042 = assay: MIC, broth dilution; assay type: cell-based, Pseudomonas aeruginosa; details: CLSI broth dilution, MHB, 37°C, 20 h, OD630, at least three repeats; clinical isolate
Text: as §1

P. aeruginosa 9014 = assay: MIC, broth dilution; assay type: cell-based, Pseudomonas aeruginosa; details: CLSI broth dilution, MHB, 37°C, 20 h, OD630, at least three repeats; clinical isolate, CRE, MDR
Text: as §1

A. baumannii 906 = assay: MIC, broth dilution; assay type: cell-based, Acinetobacter baumannii; details: CLSI broth dilution, MHB, 37°C, 20 h, OD630, at least three repeats; clinical isolate, CRE, MDR
Text: as §1

A. baumannii 9068 = assay: MIC, broth dilution; assay type: cell-based, Acinetobacter baumannii; details: CLSI broth dilution, MHB, 37°C, 20 h, OD630, at least three repeats; clinical isolate, CRE, MDR
Text: as §1

A. baumannii 13012 = assay: MIC, broth dilution; assay type: cell-based, Acinetobacter baumannii; details: CLSI broth dilution, MHB, 37°C, 20 h, OD630, at least three repeats; clinical isolate, CRE, MDR
Text: as §1

A. baumannii 13079 = assay: MIC, broth dilution; assay type: cell-based, Acinetobacter baumannii; details: CLSI broth dilution, MHB, 37°C, 20 h, OD630, at least three repeats; clinical isolate, CRE, MDR
Text: as §1

P. aeruginosa ATCC 27853 = assay: MIC, broth dilution; assay type: cell-based, Pseudomonas aeruginosa
Experimental: as §1, §2

E. faecalis ATCC 29212 = assay: MIC, broth dilution; assay type: cell-based
Experimental: as §1, §2

[1] = test system: ESBL-producing E. coli, CRE- and MDR P. aeruginosa, CRE- and MDR A. baumannii; assay: MIC, summary over resistant gram-negative strains; assay type: cell-based; details: summary of Table 4
Text: as §1

E. coli ATCC25922 = assay: MIC, broth dilution; assay type: cell-based, Escherichia coli
E. coli 2678 = assay: MIC, broth dilution; assay type: cell-based, Escherichia coli; details: CLSI broth dilution, MHB, 37°C, 20 h, OD630, at least three repeats; clinical isolate, ESBL
Text: as §1

E. coli ATCC35218 = assay: MIC, broth dilution; assay type: cell-based, Escherichia coli; details: CLSI broth dilution, MHB, 37°C, 20 h, OD630, at least three repeats; standard strain
Text: as §1

E. coli 2687 = assay: MIC, broth dilution; assay type: cell-based, Escherichia coli; details: CLSI broth dilution, MHB, 37°C, 20 h, OD630, at least three repeats; clinical isolate, ESBL
Text: as §1

S. aureus ATCC 25923 = assay: MIC, broth dilution; assay type: cell-based, Staphylococcus aureus; details: CLSI broth dilution, MHB, 37°C, 20 h, OD630, at least three repeats; standard strain
Text: as §1

S. aureus 9124 = assay: MIC, broth dilution; assay type: cell-based, Staphylococcus aureus; details: CLSI broth dilution, MHB, 37°C, 20 h, OD630, at least three repeats; clinical isolate, MRSA
Text: as §1

S. aureus 4188 = assay: MIC, broth dilution; assay type: cell-based, Staphylococcus aureus; details: CLSI broth dilution, MHB, 37°C, 20 h, OD630, at least three repeats; clinical isolate, penicillin-resistant
Text: as §1

S. aureus 1176 = assay: MIC, broth dilution; assay type: cell-based, Staphylococcus aureus; details: CLSI broth dilution, MHB, 37°C, 20 h, OD630, at least three repeats; clinical isolate
Text: as §1

[2] = salt sensitivity test, MHB, control without addition of salt ions
[3] = CLSI broth dilution, MHB, 37°C, 20 h, OD630, at least three repeats, standard strain

Compound `CC[C@H](C)[C@H](NC(=O)[C@H](CCCCN)NC(=O)[C@H](CCCCN)NC(=O)[C@@H](NC(=O)[C@@H](N)Cc1ccccc1)[C@@H](C)CC)C(=O)N[C@@H](C)C(=O)N[C@@H](CCCCN)C(=O)N[C@@H](CC(C)C)C(=O)N[C@@H](CC(C)C)C(=O)N[C@@H](CCCCN)C(=O)N[C@@H](CCCCN)C(=O)N[C@H](C(=O)N[C@@H](Cc1ccccc1)C(N)=O)[C@@H](C)CC` [BmKn2-7K] (H-FIKKIAKLLKKIF-NH2) has an MIC (S. epidermidis 888) of 2.5 µg/mL (≈ 1.57 µM), an MIC (S. epidermidis 6943) of 2.5 µg/mL (≈ 1.57 µM) and an MIC (E. faecalis 901) of 10 µg/mL (≈ 6.29 µM). For the same compound, the MIC (S. epidermidis 9092) was 2.5 µg/mL (≈ 1.57 µM), the “histopathological examination of liver, spleen and kidney” value (healthy ICR mice; single intraperitoneal dose 40 mg kg^–1 body weight, 1, 2 and 7 days post-treatment, n = 6, haematoxylin-eosin) was “no necrosis or drug-induced injury was observed” and the “mice surviving for 7 days” value (healthy ICR mice; single intraperitoneal dose 80 mg kg^–1 body weight, n = 10) was 60%. For the same compound, the survival of mice (healthy ICR mice; single intraperitoneal dose 160 mg kg^–1 body weight, n = 10) was “died within 24 h”, the “survival of mice for 7 days” value (healthy ICR mice; single intraperitoneal dose up to 40 mg kg^–1 body weight, n = 10 per cohort) was “all mice” and the “median lethal dose (LD50)” value (healthy ICR mice; single intraperitoneal injection, ICR mice, 7 days) was “exceeds 80 mg kg^–1 body weight”. For the same compound, the MIC (S. aureus ATCC29213; MHB with 4 μM FeCl3) was 5 µg/mL (≈ 3.15 µM), the MIC (S. aureus ATCC29213; MHB with 6 μM NH4HCO3) was 5 µg/mL (≈ 3.15 µM) and the MIC (S. aureus ATCC29213; MHB with 1 mM MgCl2) was 5 µg/mL (≈ 3.15 µM). For the same compound, the MIC (S. aureus ATCC29213; MHB with 2 mM CaCl2) was 5 µg/mL (≈ 3.15 µM), the MIC (S. aureus ATCC29213; MHB with 4.5 mM KCl) was 5 µg/mL (≈ 3.15 µM) and the MIC (S. aureus ATCC29213; MHB with 150 mM NaCl) was 5 µg/mL (≈ 3.15 µM). The MIC (S. aureus ATCC29213; [2]) was 5 µg/mL, the MIC (P. aeruginosa 9042) was 5 µg/mL (≈ 3.15 µM) and the MIC (P. aeruginosa 9014) was 5 µg/mL (≈ 3.15 µM). It also gave an MIC (A. baumannii 906) of 2.5 µg/mL (≈ 1.57 µM), an MIC (A. baumannii 9068) of 2.5 µg/mL (≈ 1.57 µM) and an MIC (A. baumannii 13012) of 2.5 µg/mL (≈ 1.57 µM). For the same compound, the MIC (A. baumannii 13079) was 2.5 µg/mL (≈ 1.57 µM), the MIC (P. aeruginosa ATCC 27853; [3]) was 5 µg/mL (≈ 3.15 µM) and the MIC (P. aeruginosa ATCC 27853; MHB with 4 μM FeCl3) was 20 µg/mL (≈ 12.6 µM). It also gave an MIC (P. aeruginosa ATCC 27853; MHB with 6 μM NH4HCO3) of 20 µg/mL (≈ 12.6 µM), an MIC (E. faecalis ATCC 29212; [3]) of 5 µg/mL (≈ 3.15 µM) and an MIC (E. faecalis ATCC 29212; MHB with 4 μM FeCl3) of 20 µg/mL (≈ 12.6 µM). For the same compound, the MIC (E. faecalis ATCC 29212; MHB with 6 μM NH4HCO3) was 20 µg/mL (≈ 12.6 µM), the MIC (E. faecalis ATCC 29212; MHB with 1 mM MgCl2) was 20 µg/mL (≈ 12.6 µM) and the MIC (E. faecalis ATCC 29212; MHB with 2 mM CaCl2) was 10 µg/mL (≈ 6.29 µM). It also gave an MIC (E. faecalis ATCC 29212; MHB with 4.5 mM KCl) of 20 µg/mL (≈ 12.6 µM), an MIC (E. faecalis ATCC 29212; MHB with 150 mM NaCl) of 10 µg/mL (≈ 6.29 µM) and an MIC (E. faecalis ATCC 29212; [2]) of 5 µg/mL. The “MIC against ESBL E. coli, CRE/MDR P. aeruginosa, CRE/MDR A. baumannii” value [1] was 2.5–10 μg ml^–1, the MIC (E. coli ATCC25922; CLSI broth dilution, MHB, 6.25 × 10^5 cfu per ml, 37°C, 20 h, OD630, at least three repeats) was 5 µg/mL (≈ 3.15 µM) and the MIC (E. coli ATCC25922; MHB with 4 μM FeCl3) was 20 µg/mL (≈ 12.6 µM). For the same compound, the MIC (E. coli ATCC25922; MHB with 6 μM NH4HCO3) was 20 µg/mL (≈ 12.6 µM), the MIC (E. coli 2678) was 10 µg/mL (≈ 6.29 µM) and the MIC (E. coli ATCC35218) was 10 µg/mL (≈ 6.29 µM). For the same compound, the MIC (E. coli 2687) was 10 µg/mL (≈ 6.29 µM), the MIC (S. aureus ATCC 25923) was 5 µg/mL (≈ 3.15 µM) and the MIC (S. aureus 9124) was 2.5 µg/mL (≈ 1.57 µM). It also gave an MIC (S. aureus 4188) of 2.5 µg/mL (≈ 1.57 µM) and an MIC (S. aureus 1176) of 2.5 µg/mL (≈ 1.57 µM).
